{
  "source": "patent US12582638B2",
  "about": "“Pharmaceutical composition for treating cancer, containing mTOR-signaling inhibitor as active ingredient” (KOREA ADVANCED INSTITUTE OF SCIENCE AND TECHNOLOGY, priority 2020, dated 2026)",
  "test_in_all_cases": "Cell viability, CellTiterGlo, 72 hours",
  "assay_type_in_all_cases": "cell-based",
  "key": {"[1]": {"system": "LN229", "conditions": "Homo sapiens, LN-229, LN229 cells, Brain", "procedure": "(§1) In addition to the colorectal cells, 120 cancer cell lines treated with various concentrations of lomitapide were assayed for viability. To analyze cell viability, the cells were incubated with lomitapide at 37° C. for 72 hours in a 5% or 10% CO2 atmosphere and then equilibrated at room temperature for 1 hour, followed by addition of CellTiterGlo reagent (Promega). One hour later, luminescence was measured to calculate cell viability (%). The 120 cell lines were purchased from ATCC (American Type Culture Collection, Virginia, USA)."}, "[2]": {"system": "A549", "conditions": "Homo sapiens, A549 cells, Lung", "procedure": "as §1"}, "[3]": {"system": "LOU-NH91", "conditions": "LOU-NH91 cells, Lung", "procedure": "as §1"}, "[4]": {"system": "H2228", "conditions": "Homo sapiens, NCI-H2228, H2228 cells, Lung", "procedure": "as §1"}, "[5]": {"system": "U118MG", "conditions": "Homo sapiens, U-118-MG, U118MG cells, Brain", "procedure": "as §1"}, "[6]": {"system": "Hutu 80", "conditions": "Homo sapiens, HuTu80, Hutu 80 cells, Duodenum", "procedure": "as §1"}, "[7]": {"system": "A2058", "conditions": "Homo sapiens, A2058 cells, Skin", "procedure": "as §1"}, "[8]": {"system": "MKN-1", "conditions": "Homo sapiens, MKN-1 cells, Stomach", "procedure": "as §1"}, "[9]": {"system": "JVM-3", "conditions": "Homo sapiens, JVM-3 cells, Blood", "procedure": "as §1"}, "[10]": {"system": "MDA MB 231", "conditions": "Homo sapiens, MDA MB 231 cells, Breast", "procedure": "as §1"}, "[11]": {"system": "MEC-1", "conditions": "Homo sapiens, MEC1, MEC-1 cells, Blood", "procedure": "as §1"}, "[12]": {"system": "OV56", "conditions": "OV56 cells, Ovary", "procedure": "as §1"}, "[13]": {"system": "NCI-H1563", "conditions": "Homo sapiens, NCI-H1563 cells, Lung", "procedure": "as §1"}, "[14]": {"system": "KG-1", "conditions": "Homo sapiens, KG-1 cells, Blood", "procedure": "as §1"}, "[15]": {"system": "NCI-H292", "conditions": "Homo sapiens, NCI-H292 cells, Lung", "procedure": "as §1"}, "[16]": {"system": "NCI-H838", "conditions": "Homo sapiens, NCI-H838 cells, Lung", "procedure": "as §1"}, "[17]": {"system": "BEN", "conditions": "BEN cells, Lung", "procedure": "as §1"}, "[18]": {"system": "LOVO", "conditions": "Homo sapiens, LOVO cells, Colon", "procedure": "as §1"}, "[19]": {"system": "U-937", "conditions": "Homo sapiens, U-937 cells, Blood", "procedure": "as §1"}, "[20]": {"system": "SW620", "conditions": "Homo sapiens, SW-620, SW620 cells, Colon", "procedure": "as §1"}, "[21]": {"system": "U87MG", "conditions": "Homo sapiens, U-87 MG, U87MG cells, Brain", "procedure": "as §1"}, "[22]": {"system": "OCI-AML5", "conditions": "Homo sapiens, OCI-AML-5, OCI-AML5 cells, Blood", "procedure": "as §1"}, "[23]": {"system": "SK-N-SH", "conditions": "Homo sapiens, SK-N-SH cells, Brain", "procedure": "as §1"}, "[24]": {"system": "LP-1", "conditions": "Homo sapiens, LP-1 cells, Blood", "procedure": "as §1"}, "[25]": {"system": "OCI-LY19", "conditions": "Homo sapiens, OCI-LY19 cells, Blood", "procedure": "as §1"}, "[26]": {"system": "A375", "conditions": "Homo sapiens, A-375, A375 cells, Skin", "procedure": "as §1"}, "[27]": {"system": "SJSA-1", "conditions": "Homo sapiens, SJSA-1 cells, Bone", "procedure": "as §1"}, "[28]": {"system": "Kato III", "conditions": "Homo sapiens, Kato III cells, Stomach", "procedure": "as §1"}, "[29]": {"system": "RKO", "conditions": "Homo sapiens, RKO cells, Colon", "procedure": "as §1"}, "[30]": {"system": "NCI-H2009", "conditions": "Homo sapiens, NCI-H2009 cells, Lung", "procedure": "as §1"}, "[31]": {"system": "BxPC-3", "conditions": "Homo sapiens, BxPC-3 cells, Pancreas", "procedure": "as §1"}, "[32]": {"system": "RL95-2", "conditions": "Homo sapiens, RL95-2 cells, Endometrium", "procedure": "as §1"}, "[33]": {"system": "PC3", "conditions": "Homo sapiens, PC-3, PC3 cells, Prostate", "procedure": "as §1"}, "[34]": {"system": "SW480", "conditions": "Homo sapiens, SW480 cells, Colon", "procedure": "as §1"}, "[35]": {"system": "J82", "conditions": "Homo sapiens, J82 cells, Bladder", "procedure": "as §1"}, "[36]": {"system": "H1299", "conditions": "Homo sapiens, NCI-H1299, H1299 cells, Lung", "procedure": "as §1"}, "[37]": {"system": "EFM-192A", "conditions": "EFM-192A cells, Breast", "procedure": "as §1"}, "[38]": {"system": "Hep3B2.1-7", "conditions": "Hep3B2.1-7 cells, Liver", "procedure": "as §1"}, "[39]": {"system": "H460", "conditions": "Homo sapiens, NCI-H460, H460 cells, Lung", "procedure": "as §1"}, "[40]": {"system": "PANC-1", "conditions": "Homo sapiens, PANC-1 cells, Pancreas", "procedure": "as §1"}},
  "data": [
    {"smiles": "O=C(NC1CCN(CCCCC2(C(=O)NCC(F)(F)F)c3ccccc3-c3ccccc32)CC1)c1ccccc1-c1ccc(C(F)(F)F)cc1", "note": "[lomitapide, N-(2,2,2-trifluoroethyl)-9-[4-[4-[[[4′-(trifluoromethyl)[1,1′-biphenyl]2-yl]carbonyl]amino]-1-piperidinyl]butyl]-9H-fluoren-9-carboxamide]", "values": [
      {"measurement": "IC50", "setting": "[1]", "value": 2700, "unit": "nM"},
      {"measurement": "IC50", "setting": "[2]", "value": 3.6, "unit": "µM"},
      {"measurement": "IC50", "setting": "[3]", "value": 5.7, "unit": "µM"},
      {"measurement": "IC50", "setting": "[4]", "value": 5.3, "unit": "µM"},
      {"measurement": "IC50", "setting": "[5]", "value": 2500, "unit": "nM"},
      {"measurement": "IC50", "setting": "[6]", "value": 3000, "unit": "nM"},
      {"measurement": "IC50", "setting": "[7]", "value": 1400, "unit": "nM"},
      {"measurement": "IC50", "setting": "[8]", "value": 3.7, "unit": "µM"},
      {"measurement": "IC50", "setting": "[9]", "value": 4, "unit": "µM"},
      {"measurement": "IC50", "setting": "[10]", "value": 3.2, "unit": "µM"},
      {"measurement": "IC50", "setting": "[11]", "value": 3.3, "unit": "µM"},
      {"measurement": "IC50", "setting": "[12]", "value": 4.8, "unit": "µM"},
      {"measurement": "IC50", "setting": "[13]", "value": 5.3, "unit": "µM"},
      {"measurement": "IC50", "setting": "[14]", "value": 5.7, "unit": "µM"},
      {"measurement": "IC50", "setting": "[15]", "value": 3000, "unit": "nM"},
      {"measurement": "IC50", "setting": "[16]", "value": 3.8, "unit": "µM"},
      {"measurement": "IC50", "setting": "[17]", "value": 4.2, "unit": "µM"},
      {"measurement": "IC50", "setting": "[18]", "value": 3.4, "unit": "µM"},
      {"measurement": "IC50", "setting": "[19]", "value": 2300, "unit": "nM"},
      {"measurement": "IC50", "setting": "[20]", "value": 3.6, "unit": "µM"},
      {"measurement": "IC50", "setting": "[21]", "value": 3.1, "unit": "µM"},
      {"measurement": "IC50", "setting": "[22]", "value": 2700, "unit": "nM"},
      {"measurement": "IC50", "setting": "[23]", "value": 3.2, "unit": "µM"},
      {"measurement": "IC50", "setting": "[24]", "value": 5.4, "unit": "µM"},
      {"measurement": "IC50", "setting": "[25]", "value": 2800, "unit": "nM"},
      {"measurement": "IC50", "setting": "[26]", "value": 1800, "unit": "nM"},
      {"measurement": "IC50", "setting": "[27]", "value": 3.1, "unit": "µM"},
      {"measurement": "IC50", "setting": "[28]", "value": 5.4, "unit": "µM"},
      {"measurement": "IC50", "setting": "[29]", "value": 3.3, "unit": "µM"},
      {"measurement": "IC50", "setting": "[30]", "value": 3.3, "unit": "µM"},
      {"measurement": "IC50", "setting": "[31]", "value": 5.7, "unit": "µM"},
      {"measurement": "IC50", "setting": "[32]", "value": 3.2, "unit": "µM"},
      {"measurement": "IC50", "setting": "[33]", "value": 4.3, "unit": "µM"},
      {"measurement": "IC50", "setting": "[34]", "value": 2500, "unit": "nM"},
      {"measurement": "IC50", "setting": "[35]", "value": 3.6, "unit": "µM"},
      {"measurement": "IC50", "setting": "[36]", "value": 4.8, "unit": "µM"},
      {"measurement": "IC50", "setting": "[37]", "value": 4, "unit": "µM"},
      {"measurement": "IC50", "setting": "[38]", "value": 2700, "unit": "nM"},
      {"measurement": "IC50", "setting": "[39]", "value": 3.8, "unit": "µM"},
      {"measurement": "IC50", "setting": "[40]", "value": 4.5, "unit": "µM"}
    ]}
  ]
}
